Key:
[1] = The drug is tested on Z-012 corresponding to metagenome with ENA study accession number: PRJEB37062 and ENA sample accession number: ERS12561812 for biotransformation under anaerobic condition. The drug concentrations were measured over 9 timepoints collected between 0 and 24 hours of incubation by liquid-chromatography-coupled mass spectrometry (LC–MS); details: 2 µM
[2] = human gut metagenome, 24 h, 2 µM
[3] = (§1) The drug is tested on Z-019 corresponding to rat gut metagenome with ENA study accession number: PRJEB37062 and ENA sample accession number: ERS12561818 for biotransformation under anaerobic condition. The drug concentrations were measured over 9 timepoints collected between 0 and 24 hours of incubation by liquid-chromatography-coupled mass spectrometry (LC–MS); details: 2 µM
[4] = human gut metagenome, 24 h, 2 µM; remark: listed apart in the source
[5] = human gut metagenome, 24 h, 2 µM; remark: listed apart in the source
[6] = human gut metagenome, 24 h, 2 µM; remark: listed apart in the source
[7] = as §1, with “on WLS-310” for “on Z-019”, “to human” for “to rat”, “number: ERS12561785” for “number: ERS12561818”; details: 2 µM
[8] = human gut metagenome, 24 h, 2 µM; remark: listed apart in the source
[9] = as §1, with “on WLS-090” for “on Z-019”, “to human” for “to rat”, “number: ERS12561753” for “number: ERS12561818”; details: 2 µM
[10] = human gut metagenome, 24 h, 2 µM; remark: listed apart in the source
[11] = human gut metagenome, 24 h, 2 µM; remark: listed apart in the source
[12] = as §1, with “Z-029” for “Z-019”, “ERS12561828” for “ERS12561818”; details: 2 µM
[13] = human gut metagenome, 24 h, 2 µM; remark: listed apart in the source
[14] = as §1, with “on WLS-069” for “on Z-019”, “to human” for “to rat”, “number: ERS12561748” for “number: ERS12561818”; details: 2 µM
[15] = human gut metagenome, 24 h, 2 µM; remark: listed apart in the source
[16] = as §1, with “on Z-030” for “on Z-019”, “to mouse” for “to rat”, “number: ERS12561829” for “number: ERS12561818”; details: 2 µM
[17] = human gut metagenome, 24 h, 2 µM; remark: listed apart in the source
[18] = as §1, with “on WLS-039” for “on Z-019”, “to human” for “to rat”, “number: ERS12561746” for “number: ERS12561818”; details: 2 µM
[19] = human gut metagenome, 24 h, 2 µM; remark: listed apart in the source
[20] = human gut metagenome, 24 h, 2 µM; remark: listed apart in the source
Also: call rule not given here.

| SMILES | Bacterial Biotransformation [1] | Bacterial Biotransformation [2] | Bacterial Biotransformation [3] | Bacterial Biotransformation [4] | Bacterial Biotransformation [5] | Bacterial Biotransformation [6] | Bacterial Biotransformation [7] | Bacterial Biotransformation [8] | Bacterial Biotransformation [9] | Bacterial Biotransformation [10] | Bacterial Biotransformation [11] | Bacterial Biotransformation [12] | Bacterial Biotransformation [13] | Bacterial Biotransformation [14] | Bacterial Biotransformation [15] | Bacterial Biotransformation [16] | Bacterial Biotransformation [17] | Bacterial Biotransformation [18] | Bacterial Biotransformation [19] | Bacterial Biotransformation [20] |
| --- | --- | --- | --- | --- | --- | --- | --- | --- | --- | --- | --- | --- | --- | --- | --- | --- | --- | --- | --- | --- |
| COC(=O)C(c1ccccc1)C1CCCCN1 (stereo not given) [METHYLPHENIDATE] | Compound NOT metabolized | Compound NOT metabolized | Compound NOT metabolized | Compound NOT metabolized | Compound NOT metabolized | Compound NOT metabolized | Compound NOT metabolized | Compound NOT metabolized | Compound metabolized | Compound metabolized | Compound NOT metabolized | Compound NOT metabolized | Compound metabolized | Compound NOT metabolized | Compound NOT metabolized | Compound NOT metabolized | Compound NOT metabolized | Compound NOT metabolized | Compound metabolized | Compound NOT metabolized |
| CN1CCN2c3ccccc3Cc3ccccc3C2C1 (stereo not given) [MIANSERIN] | Compound NOT metabolized | Compound NOT metabolized | Compound NOT metabolized | Compound metabolized | Compound NOT metabolized | Compound NOT metabolized | Compound NOT metabolized | Compound NOT metabolized | Compound metabolized | Compound metabolized | Compound metabolized | Compound NOT metabolized | Compound NOT metabolized | Compound metabolized | Compound NOT metabolized | Compound NOT metabolized | Compound NOT metabolized | Compound metabolized | Compound metabolized | Compound metabolized |
| CC#C[C@]1(O)CC[C@H]2[C@@H]3CCC4=CC(=O)CCC4=C3[C@@H](c3ccc(N(C)C)cc3)C[C@@]21C [MIFEPRISTONE] | Compound NOT metabolized | Compound NOT metabolized | Compound NOT metabolized | Compound NOT metabolized | Compound metabolized | Compound NOT metabolized | Compound metabolized | Compound NOT metabolized | Compound metabolized | Compound metabolized | Compound NOT metabolized | Compound NOT metabolized | Compound NOT metabolized | Compound metabolized | Compound metabolized | Compound NOT metabolized | Compound NOT metabolized | Compound NOT metabolized | Compound metabolized | Compound NOT metabolized |
| CC(C)(C)NCC(O)COc1cccc2c1CC(O)C(O)C2 (stereo not given) [NADOLOL] | Compound NOT metabolized | Compound NOT metabolized | Compound NOT metabolized | Compound NOT metabolized | Compound NOT metabolized | Compound NOT metabolized | Compound metabolized | Compound NOT metabolized | Compound metabolized | Compound metabolized | Compound NOT metabolized | Compound NOT metabolized | Compound metabolized | Compound metabolized | Compound NOT metabolized | Compound NOT metabolized | Compound NOT metabolized | Compound NOT metabolized | Compound metabolized | Compound NOT metabolized |
| CC(C)[C@H]1CC[C@H](C(=O)N[C@H](Cc2ccccc2)C(=O)O)CC1 [NATEGLINIDE] | Compound NOT metabolized | Compound metabolized | Compound NOT metabolized | Compound metabolized | Compound metabolized | Compound metabolized | Compound metabolized | Compound metabolized | Compound metabolized | Compound metabolized | Compound metabolized | Compound NOT metabolized | Compound metabolized | Compound metabolized | Compound metabolized | Compound NOT metabolized | Compound metabolized | Compound NOT metabolized | Compound metabolized | Compound metabolized |
| CN(C)C(=O)Oc1cccc([N+](C)(C)C)c1.[Br-] [NEOSTIGMINE BROMIDE] | Compound NOT metabolized | Compound NOT metabolized | Compound NOT metabolized | Compound NOT metabolized | Compound NOT metabolized | Compound NOT metabolized | Compound NOT metabolized | Compound NOT metabolized | Compound NOT metabolized | Compound NOT metabolized | Compound NOT metabolized | Compound metabolized | Compound NOT metabolized | Compound NOT metabolized | Compound NOT metabolized | Compound NOT metabolized | Compound NOT metabolized | Compound NOT metabolized | Compound NOT metabolized | Compound NOT metabolized |
| Cc1ccccc1C(OCCN(C)C)c1ccccc1.O=C(O)CC(O)(CC(=O)O)C(=O)O (stereo not given) [ORPHENADRINE CITRATE] | Compound NOT metabolized | Compound NOT metabolized | Compound NOT metabolized | Compound metabolized | Compound NOT metabolized | Compound NOT metabolized | Compound NOT metabolized | Compound NOT metabolized | Compound NOT metabolized | Compound metabolized | Compound NOT metabolized | Compound NOT metabolized | Compound metabolized | Compound NOT metabolized | Compound NOT metabolized | Compound NOT metabolized | Compound NOT metabolized | Compound metabolized | Compound metabolized | Compound NOT metabolized |
| COc1ccc(Cc2nccc3cc(OC)c(OC)cc23)cc1OC [PAPAVERINE] | Compound NOT metabolized | Compound NOT metabolized | Compound NOT metabolized | Compound metabolized | Compound metabolized | Compound metabolized | Compound metabolized | Compound metabolized | Compound metabolized | Compound metabolized | Compound NOT metabolized | Compound NOT metabolized | Compound metabolized | Compound metabolized | Compound metabolized | Compound NOT metabolized | Compound metabolized | Compound metabolized | Compound metabolized | Compound metabolized |
| CC(=O)CCCCn1c(=O)c2c(ncn2C)n(C)c1=O [PENTOXIFYLLINE] | Compound NOT metabolized | Compound NOT metabolized | Compound NOT metabolized | Compound NOT metabolized | Compound NOT metabolized | Compound NOT metabolized | Compound NOT metabolized | Compound NOT metabolized | Compound metabolized | Compound metabolized | Compound NOT metabolized | Compound NOT metabolized | Compound NOT metabolized | Compound NOT metabolized | Compound NOT metabolized | Compound NOT metabolized | Compound NOT metabolized | Compound NOT metabolized | Compound metabolized | Compound NOT metabolized |

Source: ChEMBL document CHEMBL5724914, “Linking interpersonal differences in gut microbiota composition and drug biotransformation activity” (2024)
